{
  "source": "patent EP2662079A1",
  "about": "(Ordway Research Institute, Inc., priority 2012, dated 2013)",
  "key": {"[1]": {"test_system": "GL261 murine brain tumor cells", "assay": "Clonogenic survival after single doses of 250 kVp x-rays", "assay_type": "cell-based", "details": "for α (Gy^-1) / β (Gy^-2): LQ; for SF2: survival at 2 Gy", "method": "To irradiate 25 cm^2 flasks, an x-ray machine was used and (Philips 250 kVp Therapeutic X-ray Machine, Einhoven, Germany) operated at 250 kVp and 15 mA with added filtration of 0.4 mm Thoreaus filter. The target to source distance was approximately 30 cm. Dose rates were measured using an R-meter (Victoreen R-meter, Cleveland, OH), and converted to absorbed (Gy) doses using appropriate temperature, pressure, and R to Gy conversion factors. The dose rate was 1 Gy per min. Flasks were irradiated at ambient temperature.\nExperimental cells and FCs were added to treatment flasks before irradiation, and were then allowed to attach to the surfaces of the flask and incubated at 37°C for 1 hour. After incubation the flasks were irradiated using the 250 kVp x-ray source.\nFor […] analyses, survival data lying at or below 36.8% survival were analyzed by using the log fractional survival (log FxS) versus dose (D). Data were fit using linear regression analysis (SigmaPlot, V. 10, Systat Corp., Point Richmond, CA) to obtain the Y-intercept (or n, the extrapolation number) and the slope (1/D0), and their 95% confidence limits. (See Goldstein, A. In: Biostatistics, New York, The MacMillan Co., 1964, p. 140-146).. The Do value (Gy) is defined as the inverse of the slope, and the corrected Dq value (Gy) was then defined using the relationship: Dq(Gy) = ln n x D0 (Gy) [formula] The 95% confidence limits on Dq were defined using error propagation. (See Chase, et al., In: Principles of Radioisotope Methodology. Minneapolis, MN. Burgess Publ. Co., 1962, p. 68, 87-90).\nFor LQ analyses, data lying between a fractional survival of 1.00 and 0.05 were used. The fractional survival data at each dose were transformed using the relationship (-In FxS/D) and plotted against dose (D). A regression analysis was performed to yield the LQ equation along with their 95% confidence limit values using a t-table with the appropriate (N-1) degrees of freedom. (See Goldstein, A. In: Biostatistics, New York, The MacMillan Co., 1964, p. 140-146).\nTo determine the Tetrac modification factor (TMF), the survival at 2 Gy obtained for control cells was divided by the survival at 2 Gy for Tetrac treated cells. The 95% confidence limits on the ratio were determined using error propagation techniques. (See Chase, et al. In: Princiiples of Radioisotope Methodology, Minneapolis, MN, Burgress Publ. Co., 1962, p. 68, 87-90)."}, "[2]": {"test_system": "GL261 tumor cells", "assay": "44°C hyperthermia survival", "assay_type": "cell-based, murine", "method": "Additionally, Tetrac sensitizes GL261 cells in hyperthermic conditions. Graded heat treatment of GL261 tumor cells with 44°C was given, without and with Tetrac. Tetrac increased cell killing as compared to control cells alone, by the equivalent of about 1°C (i.e., 44°C plus Tetrac is the equivalent of 45°C without Tetrac). (See Figure 63)."}, "[3]": {"test_system": "MDA-MB-231 cells", "assay": "Cell proliferation in perfusion bellows cell culture system", "assay_type": "cell-based", "details": "Homo sapiens, 10^-6 M (Tetrac equivalent), added at day 0, by day 9", "method": "Tetrac and nanoparticulate Tetrac. Tetrac was custom-synthesized by Peptido GMBH (Bembach, Germany). The proprietary Tetrac nanoparticle was custom-synthesized by covalently-bonding of the outer ring hydroxyl of Tetrac to PLGA via an intervening linker. […] Cell culture for definition of effects of Tetrac formulations on tumor cell proliferation. MDA-MB-231 cells were purchased from ATCC (Manassas, VA). Cells were maintained until use in DMEM that contained 10% FBS. The incubator conditions were 5% CO2/95% 02 and 37° C. The action of unmodified Tetrac and nanoparticulate on MDA-MB-231 cells was determined in a perfusion bellows cell culture system we have recently described for quantitating pharmaceutical agent pharmacodynamics in vitro. (See Lin et al., J Steroid Biochem Mol Biol 113: 182-188 (2009)). In brief, the cell culture system is a disposable bioreactor capable of high density cell culture for studies of anti-cancer drugs. Bellows-induced alternate flow of culture medium and air through porous matrices where cells are grown provides a relatively low shear, high aeration, foam-free culture environment. Medium level is raised and lowered to submerge and expose matrices to create a dynamic interface between air and media on the cell surface. […] Flakes thereafter were sampled at regular intervals (Figure 44), subjected to trypsinization and the harvested cells counted. […]"}, "[4]": {"details": "Exponential Phase (with Tetrac)"}, "[5]": {"details": "Unfed plateau Phase (with Tetrac)"}, "[6]": {"details": "SHMT, Unfed plateau Phase (with Tetrac)"}},
  "note": "“And” between values parts separate entries of the source, which are not always exact repeats. Equal entries are not always repeated.",
  "data": [
    {"smiles": "O=C(O)Cc1cc(I)c(Oc2cc(I)c(O)c(I)c2)c(I)c1", "note": "[Tetrac, 3,3',5,5'-tetraiodothyroacetic acid]", "values": [
      {"measurement": "α (Gy^-1)", "setting": "[1]; [4]", "value": 0.930, "unit": "Gy^-1"},
      {"measurement": "β (Gy^-2)", "setting": "[1]; [4]", "value": 0.003, "unit": "Gy^-2"},
      {"measurement": "α (Gy^-1)", "setting": "[1]; [5]", "value": 1.157, "unit": "Gy^-1"},
      {"measurement": "β (Gy^-2)", "setting": "[1]; [5]", "value": 0.066, "unit": "Gy^-2"},
      {"measurement": "D0 (Gy)", "setting": "[1]; SHMT, Exponential phase (with Tetrac)", "value": "1.08 Gy and 1.08 (0.09). Gy"},
      {"measurement": "D0 (Gy)", "setting": "[1]; [6]", "value": 0.75, "unit": "Gy"},
      {"measurement": "Dq (Gy)", "setting": "[1]; [6]", "value": 0.00, "unit": "Gy"},
      {"measurement": "sensitization of oxic and hypoxic cells", "setting": "[1]; Tetrac 2µM, graded doses of 250 kVp x-rays (Figure 60)", "value": "sensitize both oxic and hypoxic cells equally"},
      {"measurement": "survival at 2 Gy", "setting": "[1]; Tetrac treated cells (non-Tetrac treated 32%)", "value": 13, "unit": "%"},
      {"measurement": "increase of the Do value", "setting": "[1]; exponentially growing cells", "value": 15, "unit": "%"},
      {"measurement": "reduction of the Dq value", "setting": "[1]; exponentially growing cells", "value": 100, "unit": "%"},
      {"measurement": "reduction of the extrapolation number", "setting": "[1]; exponentially growing cells", "value": 93, "unit": "%"},
      {"measurement": "reduction of n", "setting": "[1]; plateau phase cells", "value": 93, "unit": "%"},
      {"measurement": "reduction of the Do", "setting": "[1]; plateau phase cells", "value": 6, "unit": "%"},
      {"measurement": "reduction of the Dq", "setting": "[1]; plateau phase cells", "value": 100, "unit": "%"},
      {"measurement": "SF2", "setting": "[1]; [4]", "value": 14.2, "unit": "%"},
      {"measurement": "SF2", "setting": "[1]; [5]", "value": "7.62 (6.82 - 8.51) %"},
      {"measurement": "increase in cell killing as temperature equivalent", "setting": "[2]; 44°C plus Tetrac", "value": "about 1 °C"},
      {"measurement": "sensitization factor", "setting": "[2]; Tetrac 2uM, 20 minutes at 44°C", "value": 3.8},
      {"measurement": "inhibition at 1 µM", "setting": "[3]", "value": "> 30", "unit": "%"}
    ]}
  ]
}
